Test results reported in patent publication US6187906A, “Methods to improve neural outcome” (Aukland Uniservices Limited, priority 1998, dated 2001).

Experiments:
[1] = target: IGF-1 receptor (Homo sapiens, UniProt P08069); details: cited from earlier work
[2] = [3H]-GPE quantitative receptor autoradiography in coronal brain sections; assay type: binding, rat; details: 1 hour room temperature, right side neurons absent due to injury, little reaction
Experimental: A histological experiment to locate GPE binding sites within the rat brain employed quantitative receptor autoradiography to locate [3H]-GPE binding in coronal sections of the brain as previously described in Dragunow et al (1988, Brain Research 462, 252-257). Fresh frozen brain sections were cut on a cryostat and stored at -80 deg C. until use. Sections were then thawed and pre-incubated with 50 mM Tris HCl (pH 7.4) for 10 minutes at room temperature (250 μl per section). Sections were then dried and 250 μl per section of 5×10^5 counts/min^-1 of [3H]-GPE also made up in Tris HCl buffer (50 mM, pH 7.4) was added for 1 hour at room temperature. Sections were then washed two times for one minute each in ice-cold Tris-HCl followed by one rinse for 1 minute in ice-cold distilled water. Sections were then dried overnight at 4 deg C. and apposed to [3H] sensitive film for 2 weeks, and then developed to produce autoradiograms.

[3] = test system: dopamine neurons in the pars compacta region of the substantia nigra; experiment: 6-OHDA lesion, count of TH immunopositive neurons in substantia nigra (Experiments 4 and 5); assay type: in vivo, Wistar rats
Experimental: This experiment was blind with respect to the treatment (with GPE or the vehicle) and with respect to the counting of neurons expressing TH (between sections from animals treated with GPE or vehicle).
The objective of this experiment was to determine the effects of administering GPE on the expression of tyrosine hydroxylase (TH) in the presence or absence of CNS injury. […] Specifically, 9 pairs of adult male Wistar rats (280-320 g) were prepared under 3% halothane/O2 anaesthesia. The oxygen free radical producing neurotoxin 6-hydroxydopamine (6-OHDA) which produces degeneration of dopamine neurones (8 μg/2 μl) was injected into the median forebrain bundle using a 30 gauge needle (coordinates: anterior-posterior +4.7 mm, right +1.6 mm, vertical -8.5 mm). A guide cannula was placed on the dura 7.5 mm anterior from stereotaxic zero and 1.5 mm from the midline on the right. The rats were left to recover at room temperature. […]
The total counts of neurons were compared between the GPE and the vehicle treated group. Data were analysed with paired t-test and presented as mean ±sem.
Experiment 5 was performed using a second set of rats (9 pairs) using the same experimental parameters except that only the immunopositive neurons at 2 levels of the substantia nigra were counted.

[4] = test system: neurons in the CA1-2 region of the hippocampus; assay type: in vivo, Wistar rats
Experimental: The objective of this study was to compare the effects of treatment with GPE to that of a vehicle given 2 hours after an hypoxic-ischemic injury. The dose range of 2 to 200 μg was chosen to span a range of systemic doses that are greater than that required centrally (see experiment 3).
Unilateral hypoxic-ischemic injury was induced in 21 day old, 45±5 g Wistar rats. The rats underwent unilateral carotid ligation under light halothane anaesthesia.
Following one hour recovery they were placed in an incubator at 34 deg C. 85±5% humidity for one hour before the injury. They were subjected to […] inhalation hypoxia (Fi02.8.0%) and then returned to room temperature (22 deg C.) and normoxia. […]
Surviving and dead neurons were discriminated using the thionin/acid fuchsin staining technique (Guan et al J Cereb Blood Flow Metab. 13:609-616 (1993). The results, in which the height of a point is given by the ratio as a percentage of live neurones in the CA1-2 region on the right side to the number on the left side are shown in FIG. 5. Column A is vehicle, column B is 2 μg of GPE, column C is 20 μg of GPE, and column D is 200 μg of GPE. In this figure, the P value (0.031) was calculated by a method using one way ANOVA comparing many groups after Arcsin transformation.

Chain of IGF-1 receptor (P08069 31-736 limits assumed): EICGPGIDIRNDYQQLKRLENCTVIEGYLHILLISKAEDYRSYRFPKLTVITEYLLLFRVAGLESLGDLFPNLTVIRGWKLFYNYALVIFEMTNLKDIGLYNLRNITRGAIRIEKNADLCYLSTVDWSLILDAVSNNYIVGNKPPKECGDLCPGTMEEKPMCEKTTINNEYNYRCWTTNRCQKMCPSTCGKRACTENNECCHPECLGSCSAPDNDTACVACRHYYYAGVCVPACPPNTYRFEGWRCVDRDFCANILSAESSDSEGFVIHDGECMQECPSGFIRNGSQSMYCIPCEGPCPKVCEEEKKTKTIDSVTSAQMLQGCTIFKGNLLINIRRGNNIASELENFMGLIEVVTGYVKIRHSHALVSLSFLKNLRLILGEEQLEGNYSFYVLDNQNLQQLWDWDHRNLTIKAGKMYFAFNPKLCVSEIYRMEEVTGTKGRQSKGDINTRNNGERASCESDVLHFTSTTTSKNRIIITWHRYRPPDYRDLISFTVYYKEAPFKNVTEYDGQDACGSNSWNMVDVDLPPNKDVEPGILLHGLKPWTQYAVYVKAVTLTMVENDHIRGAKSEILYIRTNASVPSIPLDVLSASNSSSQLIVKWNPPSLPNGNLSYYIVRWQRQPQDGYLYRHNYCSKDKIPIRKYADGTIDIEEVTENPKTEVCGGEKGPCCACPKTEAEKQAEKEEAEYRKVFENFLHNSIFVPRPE
Chain of IGF-1 receptor (P08069 741-1367 partner limits assumed): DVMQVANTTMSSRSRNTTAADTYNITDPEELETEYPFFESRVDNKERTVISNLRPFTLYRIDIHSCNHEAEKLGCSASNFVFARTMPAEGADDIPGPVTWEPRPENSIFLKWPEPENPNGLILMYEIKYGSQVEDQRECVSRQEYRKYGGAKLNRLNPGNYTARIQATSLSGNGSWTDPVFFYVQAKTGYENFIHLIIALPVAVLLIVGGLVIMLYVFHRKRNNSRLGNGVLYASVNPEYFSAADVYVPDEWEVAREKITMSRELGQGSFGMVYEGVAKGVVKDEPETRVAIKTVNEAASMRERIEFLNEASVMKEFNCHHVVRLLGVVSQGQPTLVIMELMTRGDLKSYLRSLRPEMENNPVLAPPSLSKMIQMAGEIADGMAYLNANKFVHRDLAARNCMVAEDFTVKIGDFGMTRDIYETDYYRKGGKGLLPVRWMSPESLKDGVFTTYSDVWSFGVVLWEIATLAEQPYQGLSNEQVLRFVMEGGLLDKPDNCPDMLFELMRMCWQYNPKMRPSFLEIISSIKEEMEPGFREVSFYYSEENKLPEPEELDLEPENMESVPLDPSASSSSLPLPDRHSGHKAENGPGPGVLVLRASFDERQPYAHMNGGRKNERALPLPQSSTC

SMILES: NCC(=O)N1CCC[C@H]1C(=O)N[C@@H](CCC(=O)O)C(=O)O [GPE, gly-pro-glu]
- binding to the IGF-1 receptor [1]: does not
- [3H]-GPE binding in hippocampus [2]: left hippocampus has bound the radioactive material
- protection of dopaminergic neurons against 6-OHDA (TH expression in SNc) ([3]; Experiments 4 and 5): provided protection
- number of TH immunopositive dopamine neurons ([3]; lesioned (right) side, 3 μg GPE 2 hours after 6-OHDA, 14 days, Experiment 4): increased
- loss of neurons in the CA1-2 region of the hippocampus ([4]; 20 μg GPE single intraperitoneal injection 2 hours after injury, 120 hrs, p<0.05): reduced the loss of neurons
- crossing of the blood-brain barrier ([4]; rat, in vivo): can cross the blood-brain barrier
